# From US20150265630A1, “6-Substituted Estradiol Derivatives for the Treatment of Alzheimer's Disease” (Endece LLC, priority 2014, published 2015)
# Columns and labels:
# Type in all cases: cell-based
# [1] = tested on: Lipoprotein Lipase mRNA (LPL); test: Expression profiling (Agilent whole human genome microarray), LPL mRNA in human tumor cell lines; details: for Gene expression value, Lipoprotein Lipase mRNA (LPL), treated vs untreated: 50 μM, 24 hours
# Description: (§1) The study includes three human tumor cell lines: A549, Panc-1, and SK-OV-3. The lines are each grown in two flasks cultured to roughly 40% confluence. One of the flasks is treated by addition of compound to the culture media at a various concentrations, i.e. 10 μM, 20 μM 50 μM, or 100 μM. The other, mock treated, flask is treated only with the vehicle used to solubilize and deliver the drug. RNA extracted from the pairs of treated and untreated samples is subjected to microarray analysis on Agilent Whole Human Genome Microarrays (G4112F). Each analysis reports the difference in abundance of messenger RNAs for each of the 41,000 specific mRNA detectors on the array. This direct comparison of the treated versus untreated samples for each cell line provides extremely sensitive detection of changes in mRNA abundance resulting from the drug treatment. As each cell line comparison is self-normalized, the results can be compared across the samples with high confidence.
# (§2) Three human tumor cell lines, A549, Panc-1, and SK-OV-3, are each grown in two flasks cultured to roughly 40% confluence. One of the flasks is treated by addition of compound to the culture media at concentrations of 10 μM, 50 μM and 100 μM. The other, mock treated, flask is treated only with the vehicle used to solubilize and deliver the drug. All flasks are cultured for a further 24 hours, and then the cells are scraped free and washed in ice-cold PBS, then collected by centrifugation. The harvested cells are immediately frozen, and stored at −80° C. or colder.
# (§3) Total RNA is prepared from the frozen tissue samples using Trizol-based cell lysis followed by 65° C. hot phenol extraction and RNeasy chromatography purification. The purified RNA samples are analyzed spectrophotometrically. The concentration of RNA is determined by measuring the absorbance at 260 nm (A260). Given an absorbance of 1 unit at 260 nm corresponds to […] of RNA per ml when measured at pH 11.
# (§4) All RNAs are labeled using 1 microgram of RNA as input to an Agilent Low Input Labeling reaction.
# (§5) Test RNA is labeled with Cy5 (650 nm emitter) and reference RNA is labeled with Cy3 (550 nm emitter) nucleotides. Labeling, hybridizations and subsequent washings are carried out on Agilent H1Av2 human expression chips. The resulting hybridized chips are scanned on an Agilent microarray scanner, and intensity information for each detector spot is extracted from the scanned image using Agilent feature extraction software. […]
# (§6) After the ratios have been calculated for the normalized data, the various control and duplicate samples are analyzed to build a model of how reproducible the results are, and how this reproducibility is varies depending on signal strength and noise. […]
# [2] = tested on: Apolipoprotein C2 (ApoC2); test: Expression profiling (Agilent whole human genome microarray), ApoC2 mRNA in human tumor cell lines; details: for Gene expression value, Apolipoprotein C2 (ApoC2), treated vs untreated: 50 μM, 24 hours
# Description: as §1, §2, §3, §4, §5, §6
# [3] = tested on: Apolipoprotein C3 (ApoC3); test: Expression profiling (Agilent whole human genome microarray), ApoC3 mRNA in human tumor cell lines; details: for Gene expression value, Apolipoprotein C3 (ApoC3), treated vs untreated: 50 μM, 24 hours
# Description: as §1, §2, §3, §4, §5, §6
# [4] = human tumor cell lines SKOV-3, A549 and Panc-1, summary of Table 1
structure (smiles),measurement,setting,value
"COCCCCCC[C@@H]1C[C@@H]2[C@H](CC[C@]3(C)C(O)CC[C@@H]23)c2ccc(O)cc21 (stereo partly drawn) [Compound 21, (6R,8R,9S,13S,14S)-6-(6-methoxyhexyl)-13-methyl-7,8,9,11,12,13,14,15,16,17-decahydro-6H-cyclopenta[a]phenanthrene-3,17-diol]","Gene expression value, Lipoprotein Lipase mRNA (LPL), treated vs untreated","[1]; A549 cells, p = 0.0018",2.95 log2
same,"Gene expression value, Lipoprotein Lipase mRNA (LPL), treated vs untreated",[1]; Panc-1 cells,3.90 log2
same,"Gene expression value, Lipoprotein Lipase mRNA (LPL), treated vs untreated","[1]; SKOV-3 cells, p = 0.008",2.77 log2
same,Regulation of the LPL gene (in words),[1]; [4],up-regulate
same,"Gene expression value, Apolipoprotein C2 (ApoC2), treated vs untreated",[2]; A549 cells,7.21 log2
same,"Gene expression value, Apolipoprotein C2 (ApoC2), treated vs untreated",[2]; Panc-1 cells,6.91 log2
same,"Gene expression value, Apolipoprotein C2 (ApoC2), treated vs untreated",[2]; SKOV-3 cells,3.89 log2
same,Regulation of the ApoC2 gene (in words),[2]; [4],up-regulate
same,"Gene expression value, Apolipoprotein C3 (ApoC3), treated vs untreated",[3]; A549 cells,0 log2
same,"Gene expression value, Apolipoprotein C3 (ApoC3), treated vs untreated",[3]; Panc-1 cells,0 log2
same,"Gene expression value, Apolipoprotein C3 (ApoC3), treated vs untreated",[3]; SKOV-3 cells,0 log2
same,Regulation of the ApoC3 gene (in words),[3]; [4],but not the ApoC3 gene
